Source: US12435031B2, “Compound with broad-spectrum antibacterial activity and its antibacterial composition” (CHINA AGRICULTURAL UNIVERSITY, priority 2023, dated 2025)
Values after ≈ are worked out from the molar mass of the structure shown. Read-outs that look alike come from different tables or passages of the source.

Columns and labels:
[1] = tested on: Clostridium perfringens; test: microbe, parasite or virus in culture; type: cell-based; conditions: read-out: MICs
[2] = tested on: Mycobacterium smegmatis; test: microbe, parasite or virus in culture; type: cell-based; conditions: Mycolicibacterium smegmatis, read-out: MICs
[3] = tested on: Clostridium perfringens; test: microbe, parasite or virus in culture; type: cell-based; conditions: Clostridium perfringens
[4] = tested on: Bacillus; test: microbe, parasite or virus in culture; type: cell-based; conditions: for MIC: read-out: MICs
[5] = tested on: Streptococcus; test: microbe, parasite or virus in culture; type: cell-based; conditions: for MIC: read-out: MICs
[6] = tested on: Staphylococcus; test: microbe, parasite or virus in culture; type: cell-based; conditions: for MIC: read-out: MICs
[7] = tested on: MRSA T144; conditions: Galleria mellonella infected with MRSA T144, 2 mg/kg b.w. 1 hour after infection, within 5 days
[8] = tested on: Staphylococcus aureus ATCC 25923; test: Growth curve (OD 600 nm, 24 h), Staphylococcus aureus; conditions: Staphylococcus aureus ATCC 25923, BAB159 at its MIC concentration, OD 600 nm over 24 hours
[9] = Pharmacokinetics in rabbit plasma after intramuscular injection; type: in vivo, rabbits; conditions: for Cmax: 20 mg/kg
Procedure: In order to investigate the metabolic residues of BAB159 in model animals, rabbits were used as animal models to quantitatively analyze the levels of BAB159 in rabbit plasma. Male Chinese white rabbits weighing around 2 kg were adaptively fed for one week. Then, 2 mL of BAB159 suspension was injected into the left hind thigh muscle of the rabbits at a dose of 20 mg/kg b.w. Blood samples were collected from the ear vein at 8 time points, including 0.5, 1, 2, 4, 6, 8, 12, and 24 hours after administration. After pre-treatment of the plasma samples, UPLC-MS/MS detection was performed.

[10] = tested on: MRSA T144; conditions: C57BL/6J mice infected i.p. with MRSA T144, 10 mg/kg b.w. 1 hour after infection, within 3 days
[11] = tested on: Haemophilus; test: MIC, broth microdilution, Haemophilus; type: cell-based
[12] = MIC against pathogenic fungi, Candida ATCC 6258; type: cell-based; conditions: Candida albicans ATCC 6258 (Candida krusei ATCC 6258)
[13] = tested on: Aspergillus niger ATCC 96918; test: MIC against pathogenic fungi, Aspergillus niger; type: cell-based; conditions: for MICs: Aspergillus niger ATCC 96918
[14] = tested on: Candida albicans, Aspergillus flavus, Aspergillus niger, and Trichophyton; test: MIC against common clinical pathogenic fungi (summary); type: cell-based; conditions: range over species
[15] = tested on: Trichophyton ATCC MTA-4439; test: MIC against pathogenic fungi, Trichophyton; type: cell-based
[16] = tested on: Aspergillus flavus ATCC 11492; test: MIC against pathogenic fungi, Aspergillus flavus; type: cell-based
[17] = tested on: MRSA T144; conditions: BAB159 at its MIC concentration, OD 600 nm over 24 hours
[18] = tested on: Enterococcus; test: microbe, parasite or virus in culture; type: cell-based
[19] = male, Chinese white, im, rabbit plasma, intramuscular injection, 20 mg/kg b.w.
[20] = male, Chinese white, rabbit, plasma, im, rabbits, intramuscular injection, 20 mg/kg b.w.
[21] = read-out: minimum inhibitory concentration (MIC50)

`CN[C@H](CC(C)C)C(=O)N[C@H]1C(=O)N[C@@H](CC(N)=O)C(=O)N[C@H]2C(=O)N[C@H]3C(=O)N[C@H](C(=O)N[C@H](C(=O)O)c4cc(O)cc(O)c4-c4cc3ccc4O)[C@H](O)c3ccc(c(Cl)c3)Oc3cc2cc(c3O[C@@H]2O[C@H](CO)[C@@H](O)[C@H](O)[C@H]2O[C@H]2C[C@](C)(N)[C@H](O)[C@H](C)O2)Oc2ccc(cc2Cl)[C@H]1O` [VAN, Vancomycin] showed an MIC [1] of 0.5 µg/mL (≈ 0.345 µM), an MIC [2] of 16 µg/mL (≈ 11 µM) and an MIC ([3]; read-out: MIC value against Clostridium perfringens) of at most 0.25 µg/mL. The MIC [4] was 0.5 µg/mL (≈ 0.345 µM), the MIC [5] was 0.25 µg/mL (≈ 0.173 µM) and the MIC ([6]; Staphylococcus) was 1 µg/mL (≈ 0.69 µM). It also gave a protective rate [7] of 40%.

In the case of `O=C(Nc1ccc(C(F)(F)F)c(Cl)c1Cl)c1cc(Cl)ccc1O` [BAB159], the “growth inhibition (growth curve)” value [8] is reported as “significantly inhibit the growth”, the AUIC ([9]; AUC after intramuscular injection in rabbits to MIC50 against Staphylococcus) is reported as 109 and the AUC [9, 19] is reported as 1710 ng·h/mL. It also gave a Tmax [9, 19] of 6 h, a Cmax ([9]; male, Chinese white, rabbit, plasma, im, rabbit plasma, intramuscular injection, 20 mg/kg b.w., read-out: Cmax) of 207 ng/mL and an AUC(0-t) [9, 20] of 1640 ± 70.5 ng·h/mL. It also gave a half-life [9, 20] of 16.1 ± 3.6 h, a Cmax ([9]; rabbit plasma, intramuscular injection, 20 mg/kg b.w.) of 148.2 ± 13.05 ng/mL and a protective rate [10] of 100%. For the same molecule, the MIC [1] was 0.25 µg/mL (≈ 0.65 µM), the MIC50 ([11]; Haemophilus, read-out: minimum inhibitory concentration (MIC50)) was 16 µg/mL (≈ 41.6 µM) and the MIC ([11]; gram-negative bacteria such as Haemophilus) was 8 to 32 µg/mL (≈ 20.8 to 83.2 µM). For the same molecule, the MIC [2] was 2 µg/mL (≈ 5.2 µM), the MIC ([12]; ATCC6258) was 1 µg/mL (≈ 2.6 µM) and the MIC50 [3] was 0.25 µg/mL (≈ 0.65 µM). It also gave an MIC90 [3] of 0.5 µg/mL (≈ 1.3 µM), an MIC ([3]; read-out: MIC value against Clostridium perfringens, strain A3-1 (A-type)) of 0.5 µg/mL (≈ 1.3 µM) and an MIC ([3]; read-out: MIC value against Clostridium perfringens, strain A3-2 (A-type)) of 0.25 µg/mL (≈ 0.65 µM). It also gave an MIC ([3]; read-out: MIC value against Clostridium perfringens, strain A57-1 (A-type)) of 0.25 µg/mL (≈ 0.65 µM), an MIC ([3]; read-out: MIC value against Clostridium perfringens, strain B4 (B-type)) of 0.5 µg/mL (≈ 1.3 µM) and an MIC ([3]; read-out: MIC value against Clostridium perfringens, strain B5 (B-type)) of 0.25 µg/mL (≈ 0.65 µM). The MIC ([3]; read-out: MIC value against Clostridium perfringens, strain C3 (C-type)) was 0.5 µg/mL (≈ 1.3 µM), the MIC ([3]; read-out: MIC value against Clostridium perfringens, strain C8 (C-type)) was 0.25 µg/mL (≈ 0.65 µM) and the MIC ([3]; read-out: MIC value against Clostridium perfringens, strain C59-1 (C-type)) was 0.25 µg/mL (≈ 0.65 µM). For the same molecule, the MIC ([3]; read-out: MIC value against Clostridium perfringens, strain D14B (D-type)) was 0.25 µg/mL (≈ 0.65 µM), the MIC ([3]; read-out: MIC value against Clostridium perfringens, strain F5-2 (F-type)) was 0.25 µg/mL (≈ 0.65 µM) and the MIC ([3]; read-out: MIC value against Clostridium perfringens, strain F6-1 (F-type)) was 0.25 µg/mL (≈ 0.65 µM). For the same molecule, the MIC ([3]; read-out: MIC value against Clostridium perfringens, strain F6-2 (F-type)) was 0.5 µg/mL (≈ 1.3 µM), the MIC ([3]; read-out: MIC value against Clostridium perfringens, strain F6-2-1 (F-type)) was 0.5 µg/mL (≈ 1.3 µM) and the MIC ([3]; read-out: MIC value against Clostridium perfringens, strain F6-2-2 (F-type)) was 0.25 µg/mL (≈ 0.65 µM). It also gave an MIC ([3]; read-out: MIC value against Clostridium perfringens, strain F7-1 (F-type)) of 0.5 µg/mL (≈ 1.3 µM), an MIC ([3]; read-out: MIC value against Clostridium perfringens, strain F8-1 (F-type)) of 0.5 µg/mL (≈ 1.3 µM) and an MIC ([3]; read-out: MIC value against Clostridium perfringens, strain H12-1 (H-type)) of 0.25 µg/mL (≈ 0.65 µM). It also gave an MIC ([3]; read-out: MIC value against Clostridium perfringens, strain H12-2 (H-type)) of 0.25 µg/mL (≈ 0.65 µM), an MIC ([3]; read-out: MIC value against Clostridium perfringens, strain H13-1 (H-type)) of 0.5 µg/mL (≈ 1.3 µM) and an MIC ([3]; read-out: MIC value against Clostridium perfringens, strain H14-1 (H-type)) of 0.5 µg/mL (≈ 1.3 µM). It also gave an MIC ([3]; read-out: MIC value against Clostridium perfringens, strain H14-2 (H-type)) of 0.5 µg/mL (≈ 1.3 µM), an MIC ([3]; read-out: MIC value against Clostridium perfringens, strain H14-4 (H-type)) of 0.5 µg/mL (≈ 1.3 µM) and an MIC ([3]; read-out: MIC value against Clostridium perfringens, strain H15-1 (H-type)) of 0.25 µg/mL (≈ 0.65 µM). It also gave an MIC ([3]; read-out: MIC value against Clostridium perfringens, strain H15-2 (H-type)) of 0.5 µg/mL (≈ 1.3 µM), an MIC ([3]; read-out: MIC value against Clostridium perfringens, strain H15-3 (H-type)) of 0.25 µg/mL (≈ 0.65 µM) and an MIC ([3]; read-out: MIC value against Clostridium perfringens, strain H16 (H-type)) of 0.25 µg/mL (≈ 0.65 µM). It also gave an MIC ([3]; read-out: highest MIC value, against 26 tested strains of Clostridium perfringens) of 0.5 µg/mL (≈ 1.3 µM), an MICs [13] of 0.5 µg/mL and an MIC ([13]; Aspergillus niger, ATCC96918, Aspergillus niger ATCC 96918) of 0.25 µg/mL (≈ 0.65 µM). It also gave an MIC [4] of 0.01 µg/mL (≈ 0.026 µM), an MIC50 [4, 21] of 0.01 µg/mL (≈ 0.026 µM) and an MIC [5] of 0.125 µg/mL (≈ 0.325 µM). The MIC50 [5, 21] was 0.125 µg/mL (≈ 0.325 µM), the MIC50 ([6]; Staphylococcus) was 0.0156 µg/mL (≈ 0.0406 µM) and the MIC ([6]; Staphylococcus) was 0.01 µg/mL (≈ 0.026 µM). The MIC50 [6, 21] was 0.01 µg/mL (≈ 0.026 µM), the MIC [14] was 0.5 to 1 µg/mL (≈ 1.3 to 2.6 µM) and the MIC ([15]; Trichophyton, read-out: MICs) was 0.125 µg/mL (≈ 0.325 µM). The MIC ([16]; ATCC11492) was 1 µg/mL (≈ 2.6 µM), the “growth inhibition (growth curve)” value [17] was “significantly inhibit the growth” and the MIC ([18]; read-out: MICs) was 0.25 µg/mL (≈ 0.65 µM). It also gave an MIC50 [18, 21] of 0.25 µg/mL (≈ 0.65 µM) and a protective rate [7] of 70%.

Work on `C[C@@H]1[C@H](O)[C@@H](C)/C=C/C=C/C=C/C=C/C=C/C=C/C=C/[C@H](O[C@@H]2O[C@H](C)[C@@H](O)[C@H](N)[C@@H]2O)C[C@@H]2O[C@](O)(C[C@@H](O)C[C@@H](O)[C@H](O)CC[C@@H](O)C[C@@H](O)CC(=O)O[C@H]1C)C[C@H](O)[C@H]2C(=O)O` [Amphotericin B] yielded an MICs [12] of 0.5 µg/mL, an MICs [13] of 0.125 µg/mL and an MICs ([15]; Trichophyton ATCC MTA-4439) of 0.25 µg/mL. The MICs [16] was 0.25 µg/mL.
